Measurements as given in the supplement of paper PMC10307832.

Tests used:
Experiment in all cases: relative viability (nuclei count vs DMSO), 5 days (fraction); higher = more cells survive
[1] = compound: C1CN(CCC1C(C2=CC3=C(C=C2)OCO3)(C4=CC5=C(C=C4)OCO5)O)C(=O)OC6=CC=C(C=C6)[N+](=O)[O-] [JZL-184] + Cc1cc(Nc2cc(N3CCN(C)CC3)nc(Sc3ccc(NC(=O)C4CC4)cc3)n2)n[nH]1 [Tozasertib] (partner 0.1 µM)
How it was run: (§1)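 Relative viability was taken as the ratio of nuclei in treated wells to nuclei in vehicle wells. Lung cancer cell lines in 1536-well plates received compounds by pin tool one day after seeding, either one drug alone or a fixed anchor-drug dose plus five library-drug doses (not always all listed) in √10 steps. Nuclei were counted on 4× images after 5 days of treatment, and values are medians of duplicate plates.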

[2] = compound: C1CN(CCC1C(C2=CC3=C(C=C2)OCO3)(C4=CC5=C(C=C4)OCO5)O)C(=O)OC6=CC=C(C=C6)[N+](=O)[O-] [JZL-184] + CC(=O)c1c(C)c2cnc(Nc3ccc(N4CCNCC4)cn3)nc2n(C2CCCC2)c1=O [Palbociclib] (partner 0.5 µM)
How it was run: as §1

[3] = compound: C1CN(CCC1C(C2=CC3=C(C=C2)OCO3)(C4=CC5=C(C=C4)OCO5)O)C(=O)OC6=CC=C(C=C6)[N+](=O)[O-] [JZL-184] + Nc1nc2[nH]cc(CCc3ccc(C(=O)N[C@@H](CCC(=O)O)C(=O)O)cc3)c2c(=O)[nH]1 [Pemetrexed] (partner 0.2 µM)
How it was run: as §1

[4] = compound: C1CN(CCC1C(C2=CC3=C(C=C2)OCO3)(C4=CC5=C(C=C4)OCO5)O)C(=O)OC6=CC=C(C=C6)[N+](=O)[O-] [JZL-184] + COc1cccc2cc(-c3nc([C@H]4CC[C@H](C(=O)O)CC4)n4ncnc(N)c34)[nH]c12 [OSI-027] (partner 0.5 µM)
How it was run: as §1

[5] = compound: C1CN(CCC1C(C2=CC3=C(C=C2)OCO3)(C4=CC5=C(C=C4)OCO5)O)C(=O)OC6=CC=C(C=C6)[N+](=O)[O-] [JZL-184] + CC(C)C[C@H](NC(=O)[C@H](Cc1ccccc1)NC(=O)c1cnccn1)B(O)O [Bortezomib] (partner 0.002 µM)
How it was run: as §1

Cell Line | relative viability ([1]; first compound 0.04 µM) | relative viability ([1]; first compound 0.4 µM) | relative viability ([1]; first compound 1.265 µM) | relative viability ([1]; first compound 4 µM) | relative viability ([2]; first compound 0.04 µM) | relative viability ([2]; first compound 0.4 µM) | relative viability ([2]; first compound 1.265 µM) | relative viability ([2]; first compound 4 µM) | relative viability ([3]; first compound 0.04 µM) | relative viability ([3]; first compound 0.4 µM) | relative viability ([3]; first compound 1.265 µM) | relative viability ([3]; first compound 4 µM) | relative viability ([4]; first compound 0.04 µM) | relative viability ([4]; first compound 0.4 µM) | relative viability ([4]; first compound 1.265 µM) | relative viability ([4]; first compound 4 µM) | relative viability ([5]; first compound 0.04 µM) | relative viability ([5]; first compound 0.4 µM) | relative viability ([5]; first compound 1.265 µM) | relative viability ([5]; first compound 4 µM)
NCI-H838 | 0.285 | 0.299 | 0.294 | 0.238 | 0.22 | 0.259 | 0.235 | 0.199 | 0.254 | 0.236 | 0.241 | 0.256 | 0.434 | 0.368 | 0.441 | 0.389 | 1.13 | 0.828 | 0.819 | 0.636
NCI-H3122 | 0.432 | 0.393 | 0.453 | 0.396 | 0.168 | 0.181 | 0.22 | 0.208 | 0.187 | 0.18 | 0.2 | 0.204 | 1.14 | 0.902 | 0.944 | 0.862 | 1.01 | 0.93 | 0.982 | 1.03
SK-MES-1 | 1.04 | 0.878 | 0.908 | 0.706 | 0.372 | 0.311 | 0.316 | 0.297 | 0.9 | 0.872 | 1 | 0.907 | 0.597 | 0.625 | 0.673 | 0.535 |  |  |  | 
NCI-H1944 | 0.283 | 0.251 | 0.281 | 0.248 | 0.338 | 0.289 | 0.347 | 0.328 | 0.587 | 0.53 | 0.72 | 0.567 | 0.421 | 0.397 | 0.448 | 0.412 |  |  |  | 
LK-2 | 0.166 | 0.163 | 0.171 | 0.181 | 0.817 | 0.514 | 0.795 | 0.887 | 0.235 | 0.2 | 0.183 | 0.277 | 0.195 | 0.193 | 0.249 | 0.21 |  |  |  | 
PC-3 [JPC-3] | 1.01 | 0.827 | 0.895 | 0.865 | 0.573 | 0.558 | 0.485 | 0.536 | 0.994 | 1.13 | 1.27 | 1.05 | 0.732 | 0.724 | 0.782 | 0.749 | 0.988 | 0.895 | 0.835 | 0.801
COR-L23 | 0.197 | 0.181 | 0.215 | 0.143 | 0.337 | 0.234 | 0.287 | 0.273 | 0.195 | 0.191 | 0.179 | 0.192 | 0.964 | 0.783 | 0.806 | 0.64 | 1.2 | 0.915 | 0.979 | 0.91
NCI-H1355 | 0.589 | 0.515 | 0.612 | 0.433 | 0.376 | 0.381 | 0.423 | 0.4 | 1.06 | 0.945 | 1.05 | 1.04 | 0.393 | 0.421 | 0.494 | 0.386 | 1.28 | 1.18 | 1.18 | 1.18
NCI-H460 | 0.428 | 0.604 | 0.571 | 0.275 | 0.147 | 0.0967 | 0.149 | 0.201 | 0.0624 | 0.0591 | 0.0649 | 0.0648 | 1.03 | 0.678 | 0.575 | 0.632 | 1.83 | 1.05 | 1.05 | 1.11
NCI-H1993 | 0.554 | 0.582 | 0.593 | 0.555 | 0.707 | 0.604 | 0.758 | 0.604 | 0.63 | 0.577 | 0.619 | 0.68 | 0.523 | 0.498 | 0.497 | 0.532 | 1.17 | 1.14 | 1.21 | 1.22
ChaGo-K-1 | 0.265 | 0.224 | 0.211 | 0.235 | 1 | 0.933 | 0.975 | 0.951 | 0.262 | 0.257 | 0.256 | 0.266 | 0.637 | 0.63 | 0.635 | 0.555 | 1.45 | 0.984 | 1.1 | 1.03
HCC-15 | 0.521 | 0.415 | 0.407 | 0.331 | 0.732 | 0.77 | 0.71 | 0.698 | 0.222 | 0.217 | 0.212 | 0.23 | 0.727 | 0.635 | 0.742 | 0.677 | 1.11 | 0.987 | 1.03 | 0.995
NCI-H23 | 0.375 | 0.307 | 0.414 | 0.316 | 0.594 |  | 0.484 | 0.486 | 0.772 |  | 0.704 | 0.597 | 0.529 | 0.538 | 0.656 | 0.65 | 1.24 | 0.765 | 1.21 | 1.07
NCI-H1395 | 0.684 | 0.738 | 0.827 | 0.748 | 0.661 | 0.598 | 0.63 | 0.573 | 0.785 | 0.948 | 0.985 | 0.75 | 0.623 | 0.519 | 0.69 | 0.581 |  |  |  | 
NCI-H1666 | 0.603 | 0.626 | 0.581 | 0.598 | 0.685 | 0.642 | 0.636 | 0.668 | 0.802 | 0.842 | 0.875 | 0.865 | 0.974 | 0.908 | 0.903 | 0.866 | 0.98 | 0.714 | 0.868 | 0.904
NCI-H2405 | 0.759 | 0.729 | 0.815 | 0.732 | 0.594 | 0.409 | 0.541 | 0.489 | 1.09 | 0.999 | 1.14 | 1.05 | 0.608 | 0.608 | 0.651 | 0.615 | 1.05 | 0.943 | 1.06 | 0.769
